This passage reports DC50 and Y results from patent US11306101B2 (Celgene Corporation, priority 2019, dated 2022).

The target in this assay is T1, CK1α (Homo sapiens, UniProt P48729+Q96SW2).
T1 construct: expressed in transfected cells
The assay is described as follows: CK1α ePL degradation assay in MDS-L cells. The class given is cell-based. The settings on record: MDS-L cells expressing ePL-tagged CK1α; for DC50: concentration giving 50% CK1α degradation vs DMSO control; for Y: lowest measured CK1α level normalized to DMSO control. An outline of the steps:
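MDS-L cells treated with compound in a 10-point, 3-fold series from 10 μM to 0.0005 μM at 37° C, 5% CO2 for the indicated times; CK1α measured by InCELL Hunter enzyme-fragment luminescence. Levels normalized to DMSO as percent of control; lowest level reached taken as Y value.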

T1 sequence (P48729 whole entry): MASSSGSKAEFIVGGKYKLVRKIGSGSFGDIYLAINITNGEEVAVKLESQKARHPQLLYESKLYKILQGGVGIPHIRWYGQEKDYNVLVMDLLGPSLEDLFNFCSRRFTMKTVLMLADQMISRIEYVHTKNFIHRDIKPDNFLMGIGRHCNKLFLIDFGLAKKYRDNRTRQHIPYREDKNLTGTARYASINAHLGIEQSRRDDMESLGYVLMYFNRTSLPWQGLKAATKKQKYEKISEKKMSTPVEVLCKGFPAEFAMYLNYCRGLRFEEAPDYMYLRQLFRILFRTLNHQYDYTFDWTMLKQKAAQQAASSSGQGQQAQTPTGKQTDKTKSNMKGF
T1 sequence (Q96SW2 whole entry): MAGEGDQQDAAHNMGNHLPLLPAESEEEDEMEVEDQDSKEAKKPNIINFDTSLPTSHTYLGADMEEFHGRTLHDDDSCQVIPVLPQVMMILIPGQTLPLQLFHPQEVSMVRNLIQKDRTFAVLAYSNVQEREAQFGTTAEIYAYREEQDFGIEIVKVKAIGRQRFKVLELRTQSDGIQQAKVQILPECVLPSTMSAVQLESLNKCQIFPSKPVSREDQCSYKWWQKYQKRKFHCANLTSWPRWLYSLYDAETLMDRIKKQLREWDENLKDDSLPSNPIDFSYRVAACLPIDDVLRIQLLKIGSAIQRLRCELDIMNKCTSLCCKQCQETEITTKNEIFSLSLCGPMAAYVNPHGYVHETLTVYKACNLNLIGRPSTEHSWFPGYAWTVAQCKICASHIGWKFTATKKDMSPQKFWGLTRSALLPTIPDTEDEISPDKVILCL
T1 sequence (Q16531 whole entry partner): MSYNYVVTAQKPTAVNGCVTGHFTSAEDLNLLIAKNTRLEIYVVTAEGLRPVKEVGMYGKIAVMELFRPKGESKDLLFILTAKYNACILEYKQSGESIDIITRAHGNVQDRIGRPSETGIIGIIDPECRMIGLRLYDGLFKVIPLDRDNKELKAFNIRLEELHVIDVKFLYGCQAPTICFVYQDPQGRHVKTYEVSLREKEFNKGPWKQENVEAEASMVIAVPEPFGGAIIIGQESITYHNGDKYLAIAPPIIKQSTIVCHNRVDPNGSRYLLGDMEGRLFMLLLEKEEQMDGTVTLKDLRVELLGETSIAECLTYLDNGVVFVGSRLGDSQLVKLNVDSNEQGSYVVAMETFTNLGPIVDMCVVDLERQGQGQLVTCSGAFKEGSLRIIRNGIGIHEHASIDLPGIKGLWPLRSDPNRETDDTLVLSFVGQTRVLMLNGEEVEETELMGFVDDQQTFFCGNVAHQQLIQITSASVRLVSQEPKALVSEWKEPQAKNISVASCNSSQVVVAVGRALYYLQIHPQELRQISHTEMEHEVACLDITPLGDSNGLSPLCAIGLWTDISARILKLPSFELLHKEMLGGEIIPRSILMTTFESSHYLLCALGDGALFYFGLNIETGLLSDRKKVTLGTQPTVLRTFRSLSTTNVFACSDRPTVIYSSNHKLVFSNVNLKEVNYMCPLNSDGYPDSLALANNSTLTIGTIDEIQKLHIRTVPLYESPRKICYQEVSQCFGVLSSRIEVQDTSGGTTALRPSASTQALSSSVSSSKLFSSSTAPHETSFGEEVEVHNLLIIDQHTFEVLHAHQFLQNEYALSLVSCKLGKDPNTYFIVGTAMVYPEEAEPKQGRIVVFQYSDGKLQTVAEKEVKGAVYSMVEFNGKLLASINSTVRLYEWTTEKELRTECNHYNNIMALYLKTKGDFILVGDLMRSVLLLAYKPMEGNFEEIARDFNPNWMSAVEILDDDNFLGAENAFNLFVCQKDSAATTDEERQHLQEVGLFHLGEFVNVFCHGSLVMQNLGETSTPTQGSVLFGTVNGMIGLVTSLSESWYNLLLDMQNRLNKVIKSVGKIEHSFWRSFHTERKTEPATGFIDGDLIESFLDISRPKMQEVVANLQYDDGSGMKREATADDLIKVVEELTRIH

As for `CC(C)[C@@H](NC(=O)c1ccc2c(c1)CN(C1CCC(=O)NC1=O)C2=O)c1ncccc1Cl` (stereo partly drawn) [Example 171, N-((R)-1-(3-chloropyridin-2-yl)-2-methylpropyl)-2-(2,6-dioxopiperidin-3-yl)-1-oxoisoindoline-5-carboxamide], the DC50 is 100 to 500 nM and the Y entry is listed as “** (a Y value (shown as**) of 20%<Y≤35%)”.
The matching figures for `CC(C)[C@H](NC(=O)c1ccc2c(c1)CN(C1CCC(=O)NC1=O)C2=O)c1ncccc1Cl` (stereo partly drawn) [Example 172, N-((S)-1-(3-chloropyridin-2-yl)-2-methylpropyl)-2-(2,6-dioxopiperidin-3-yl)-1-oxoisoindoline-5-carboxamide]: under 100 nM and “* (a Y value (shown as *) of 0<Y≤20%)”.
For `O=C1CC[C@H](N2Cc3cc(C(=O)N[C@H](c4ncccc4Cl)C(F)(F)F)ccc3C2=O)C(=O)N1` [Example 173, N-((R)-1-(3-chloropyridin-2-yl)-2,2,2-trifluoroethyl)-2-((S)-2,6-dioxopiperidin-3-yl)-1-oxoisoindoline-5-carboxamide] the same measures were under 100 nM and “* (a Y value (shown as *) of 0<Y≤20%)”.
`CC(F)(F)C(NC(=O)c1ccc2c(c1)CN(C1CCC(=O)NC1=O)C2=O)c1ccc(F)cc1` (stereo not drawn) [Example 174, N-(2,2-difluoro-1-(4-fluorophenyl)propyl)-2-(2,6-dioxopiperidin-3-yl)-1-oxoisoindoline-5-carboxamide]: the DC50 was under 100 nM and the Y entry is on record as “* (a Y value (shown as *) of 0<Y≤20%)”.
For `O=C1CCC(N2Cc3cc(C(=O)N[C@H](c4ncc(F)cc4Cl)C(F)(F)F)ccc3C2=O)C(=O)N1` (stereo partly drawn) [Example 175, N-((R)-1-(3-chloro-5-fluoropyridin-2-yl)-2,2,2-trifluoroethyl)-2-(2,6-dioxopiperidin-3-yl)-1-oxoisoindoline-5-carboxamide] the same measures were under 100 nM and “* (a Y value (shown as *) of 0<Y≤20%)”.
For `O=C1CCC(N2Cc3cc(C(=O)NC(C4CCC5(CC4)CC(O)C5)C(F)(F)F)ccc3C2=O)C(=O)N1` (stereo not drawn) [Example 176, 2-(2,6-dioxopiperidin-3-yl)-1-oxo-N-(2,2,2-trifluoro-1-(2-hydroxyspiro[3.5]nonan-7-yl)ethyl)isoindoline-5-carboxamide] the same measures were 100 to 500 nM and “* (a Y value (shown as *) of 0<Y≤20%)”.
Consider `CC(C)[C@H](NC(=O)c1ccc2c(c1)CN(C1CCC(=O)NC1=O)C2=O)c1ccc(Cl)cc1` (stereo partly drawn) [Example 177, N-((S)-1-(4-chlorophenyl)-2-methylpropyl)-2-(2,6-dioxopiperidin-3-yl)-1-oxoisoindoline-5-carboxamide], for which the DC50 is under 100 nM and the Y entry is reported as “* (a Y value (shown as *) of 0<Y≤20%)”.
Turning to `O=C1CCC(N2Cc3c(ccc(C(=O)N[C@H](c4ncc(Cl)cc4Cl)C(F)(F)F)c3F)C2=O)C(=O)N1` (stereo partly drawn) [Example 178, N-((R)-1-(3,5-dichloropyridin-2-yl)-2,2,2-trifluoroethyl)-2-(2,6-dioxopiperidin-3-yl)-4-fluoro-1-oxoisoindoline-5-carboxamide], the DC50 is under 100 nM and the Y entry is “* (a Y value (shown as *) of 0<Y≤20%)”.
For `O=C1CCC(N2Cc3cc(C(=O)N[C@H](c4ccc(CN5CC6(COC6)C5)cc4)C(F)(F)F)ccc3C2=O)C(=O)N1` (stereo partly drawn) [Example 179, N-((1R)-1-(4-(2-oxa-6-azaspiro[3.3]heptan-6-ylmethyl)phenyl)-2,2,2-trifluoroethyl)-2-(2,6-dioxopiperidin-3-yl)-1-oxoisoindoline-5-carboxamide] the same measures were 100 to 500 nM and “* (a Y value (shown as *) of 0<Y≤20%)”.
For `O=C1CCC(N2Cc3cc(C(=O)N[C@H](c4ccc(CN5CCCC5)cc4)C(F)(F)F)ccc3C2=O)C(=O)N1` (stereo partly drawn) [Example 180, 2-(2,6-dioxopiperidin-3-yl)-1-oxo-N-((R)-2,2,2-trifluoro-1-(4-(pyrrolidin-1-ylmethyl)phenyl)ethyl)isoindoline-5-carboxamide] the same measures were under 100 nM and “* (a Y value (shown as *) of 0<Y≤20%)”.
The matching figures for `O=C1CCC(N2Cc3cc(C(=O)NC(C4CCC5(CC4)CC(O)C5)C(F)(F)F)ccc3C2=O)C(=O)N1` (stereo not drawn) [Example 181, 2-(2,6-dioxopiperidin-3-yl)-1-oxo-N-(2,2,2-trifluoro-1-(2-hydroxyspiro[3.5]nonan-7-yl)ethyl)isoindoline-5-carboxamide]: 100 to 500 nM and “* (a Y value (shown as *) of 0<Y≤20%)”.
On to `O=C1CC[C@@H](N2Cc3cc(C(=O)N[C@H](c4ncccc4Cl)C(F)(F)F)ccc3C2=O)C(=O)N1` [Example 182, N-((R)-1-(3-chloropyridin-2-yl)-2,2,2-trifluoroethyl)-2-((R)-2,6-dioxopiperidin-3-yl)-1-oxoisoindoline-5-carboxamide], for which the DC50 is under 100 nM and the Y result is “* (a Y value (shown as *) of 0<Y≤20%)”.
For `O=C1CCC(N2Cc3c(ccc(C(=O)N[C@H](c4ncc(F)cc4Cl)C(F)(F)F)c3F)C2=O)C(=O)N1` (stereo partly drawn) [Example 183, N-((R)-1-(3-chloro-5-fluoropyridin-2-yl)-2,2,2-trifluoroethyl)-2-(2,6-dioxopiperidin-3-yl)-4-fluoro-1-oxoisoindoline-5-carboxamide] the same measures were under 100 nM and “* (a Y value (shown as *) of 0<Y≤20%)”.
For `O=C1CCC(N2Cc3cc(C(=O)N[C@H](c4ncc(Cl)cc4Cl)C(F)(F)F)ccc3C2=O)C(=O)N1` (stereo partly drawn) [Example 184, N-((R)-1-(3,5-dichloropyridin-2-yl)-2,2,2-trifluoroethyl)-2-(2,6-dioxopiperidin-3-yl)-1-oxoisoindoline-5-carboxamide] the same measures were under 100 nM and “* (a Y value (shown as *) of 0<Y≤20%)”.
Turning to `CN1CCN(Cc2ccc([C@@H](NC(=O)c3ccc4c(c3)CN(C3CCC(=O)NC3=O)C4=O)C(F)(F)F)cc2)CC1` (stereo partly drawn) [Example 185, 2-(2,6-dioxopiperidin-3-yl)-1-oxo-N-((R)-2,2,2-trifluoro-1-(4-((4-methylpiperazin-1-yl)methyl)phenyl)ethyl)isoindoline-5-carboxamide], the DC50 lay in the range of 100 to 500 nM and the Y result is “* (a Y value (shown as *) of 0<Y≤20%)”.
For `CN(C)Cc1ccc([C@@H](NC(=O)c2ccc3c(c2F)CN(C2CCC(=O)NC2=O)C3=O)C(F)(F)F)cc1` (stereo partly drawn) [Example 186, N-((R)-1-(4-((dimethylamino)methyl)phenyl)-2,2,2-trifluoroethyl)-2-(2,6-dioxopiperidin-3-yl)-4-fluoro-1-oxoisoindoline-5-carboxamide], the DC50 is under 100 nM and the Y result is recorded as “* (a Y value (shown as *) of 0<Y≤20%)”.
For `O=C1CCC(N2Cc3cc(C(=O)N[C@H](CC(F)(F)F)c4ccccc4)ccc3C2=O)C(=O)N1` (stereo partly drawn) [Example 187, 2-(2,6-dioxopiperidin-3-yl)-1-oxo-N-((R)-3,3,3-trifluoro-1-phenylpropyl)isoindoline-5-carboxamide] the same measures were 100 to 500 nM and “** (a Y value (shown as**) of 20%<Y≤35%)”.
The matching figures for `O=C1CCC(N2Cc3cc(C(=O)N[C@H](c4ccc(CN5CC(F)(F)C5)cc4)C(F)(F)F)ccc3C2=O)C(=O)N1` (stereo partly drawn) [Example 188, N-((R)-1-(4-((3,3-difluoroazetidin-1-yl)methyl)phenyl)-2,2,2-trifluoroethyl)-2-(2,6-dioxopiperidin-3-yl)-1-oxoisoindoline-5-carboxamide]: 100 to 500 nM and “** (a Y value (shown as**) of 20%<Y≤35%)”.
For `O=C1CCC(N2Cc3cc(C(=O)N[C@H](c4ccc(CN5CCC5)cc4)C(F)(F)F)ccc3C2=O)C(=O)N1` (stereo partly drawn) [Example 189, N-((R)-1-(4-(azetidin-1-ylmethyl)phenyl)-2,2,2-trifluoroethyl)-2-(2,6-dioxopiperidin-3-yl)-1-oxoisoindoline-5-carboxamide] the same measures were under 100 nM and “* (a Y value (shown as *) of 0<Y≤20%)”.
For `O=C1CCC(N2Cc3cc(C(=O)N[C@H](CC(F)(F)F)c4cccc(F)c4)ccc3C2=O)C(=O)N1` (stereo partly drawn) [Example 190, 2-(2,6-dioxopiperidin-3-yl)-1-oxo-N-((R)-3,3,3-trifluoro-1-(3-fluorophenyl)propyl)isoindoline-5-carboxamide], the DC50 was under 100 nM and the Y entry is listed as “** (a Y value (shown as**) of 20%<Y≤35%)”.
For `O=C1CCC(N2Cc3cc(C(=O)N[C@H](CC(F)(F)F)c4ccc(F)cc4)ccc3C2=O)C(=O)N1` (stereo partly drawn) [Example 191, 2-(2,6-dioxopiperidin-3-yl)-1-oxo-N-((R)-3,3,3-trifluoro-1-(4-fluorophenyl)propyl)isoindoline-5-carboxamide] the same measures were 100 to 500 nM and “** (a Y value (shown as**) of 20%<Y≤35%)”.
For the compound `CN(C)Cc1ccccc1[C@@H](NC(=O)c1ccc2c(c1)CN(C1CCC(=O)NC1=O)C2=O)C(F)(F)F` (stereo partly drawn) [Example 192, N-((R)-1-(2-((dimethylamino)methyl)phenyl)-2,2,2-trifluoroethyl)-2-(2,6-dioxopiperidin-3-yl)-1-oxoisoindoline-5-carboxamide], the DC50 was under 100 nM and the Y entry is on record as “* (a Y value (shown as *) of 0<Y≤20%)”.
The matching figures for `O=C1CC[C@H](N2Cc3cc(C(=O)N[C@H](c4ncc(Cl)cc4F)C(F)(F)F)ccc3C2=O)C(=O)N1` [Example 193, N-((R)-1-(5-chloro-3-fluoropyridin-2-yl)-2,2,2-trifluoroethyl)-2-((S)-2,6-dioxopiperidin-3-yl)-1-oxoisoindoline-5-carboxamide]: under 100 nM and “* (a Y value (shown as *) of 0<Y≤20%)”.
For `O=C1CCC(N2Cc3cc(C(=O)N[C@H](CC(F)(F)F)c4cccc(Cl)c4)ccc3C2=O)C(=O)N1` (stereo partly drawn) [Example 194, N-((R)-1-(3-chlorophenyl)-3,3,3-trifluoropropyl)-2-(2,6-dioxopiperidin-3-yl)-1-oxoisoindoline-5-carboxamide] the same measures were under 100 nM and “** (a Y value (shown as**) of 20%<Y≤35%)”.
